For 1 molecule, Kd results are on record in publication PMC4357699, “Identification of a second GTP-bound magnesium ion in archaeal initiation factor 2” (Nucleic Acids Research, 2015).

What all share (assay): nitrocellulose filter binding of [3H]GDP
Details in all cases: read-out: apparent Kd

Experiment [1] concerns the target T1, Ss-aIF2 (aIF2 heterotrimer, αβγ) (Saccharolobus solfataricus, UniProt Q980A5, H97A).
T1 construct: gene eif2g; full heterotrimer of α, β and γ subunits, purified; gamma from pET15b-Ss-aIF2γ; with Translation initiation factor 2 subunit alpha; Translation initiation factor 2 subunit beta

The target of experiment [2] is T2, Ss-aIF2 (aIF2 heterotrimer, αβγ) (Saccharolobus solfataricus, UniProt Q980A5).
T2 construct: gene eif2g; full heterotrimer of α, β and γ subunits, purified; gamma from pET15b-Ss-aIF2γ; with Translation initiation factor 2 subunit alpha; Translation initiation factor 2 subunit beta
T2 sequence (Q97Z79 whole entry): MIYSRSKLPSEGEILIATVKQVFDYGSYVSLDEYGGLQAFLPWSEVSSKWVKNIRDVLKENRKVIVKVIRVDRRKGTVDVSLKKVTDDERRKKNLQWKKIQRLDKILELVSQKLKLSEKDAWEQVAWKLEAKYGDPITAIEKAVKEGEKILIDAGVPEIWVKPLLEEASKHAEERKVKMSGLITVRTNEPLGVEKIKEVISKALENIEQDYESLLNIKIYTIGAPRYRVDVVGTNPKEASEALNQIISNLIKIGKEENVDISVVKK
T2 sequence (Q97W59 whole entry, further chain): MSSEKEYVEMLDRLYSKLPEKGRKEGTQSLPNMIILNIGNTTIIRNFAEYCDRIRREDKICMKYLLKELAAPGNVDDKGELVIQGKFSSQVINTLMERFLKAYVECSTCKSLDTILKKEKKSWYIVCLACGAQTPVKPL
T2 sequence (Q980A5 whole entry): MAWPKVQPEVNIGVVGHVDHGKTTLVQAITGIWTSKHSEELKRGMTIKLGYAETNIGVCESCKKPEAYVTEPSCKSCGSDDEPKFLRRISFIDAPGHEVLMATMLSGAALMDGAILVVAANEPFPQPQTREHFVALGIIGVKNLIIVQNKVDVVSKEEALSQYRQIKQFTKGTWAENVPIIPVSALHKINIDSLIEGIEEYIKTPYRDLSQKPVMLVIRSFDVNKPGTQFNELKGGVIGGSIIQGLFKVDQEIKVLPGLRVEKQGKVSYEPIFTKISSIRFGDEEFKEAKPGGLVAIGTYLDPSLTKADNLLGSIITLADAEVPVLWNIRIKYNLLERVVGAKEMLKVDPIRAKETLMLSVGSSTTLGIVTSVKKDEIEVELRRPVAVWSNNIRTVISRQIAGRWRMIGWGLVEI

Experiment [3] addresses T3, Ss-aIF2 (aIF2 heterotrimer, αβγ) (Saccharolobus solfataricus, UniProt Q980A5, D19A).
T3 construct: gene eif2g; full heterotrimer of α, β and γ subunits, purified; gamma from pET15b-Ss-aIF2γ; with Translation initiation factor 2 subunit alpha; Translation initiation factor 2 subunit beta

T1 sequence (Q980A5 whole entry H97A): as the sequence (Q980A5 whole entry) above, with H97A counted along it
T1 sequence (Q97W59 whole entry, further chain): as the sequence (Q97W59 whole entry, further chain) above
T1 sequence (Q97Z79 whole entry, further chain): as the sequence (Q97Z79 whole entry) above
T3 sequence (Q97W59 whole entry): as the sequence (Q97W59 whole entry, further chain) above
T3 sequence (Q97Z79 whole entry, further chain): as the sequence (Q97Z79 whole entry) above
T3 sequence (Q980A5 whole entry D19A): as the sequence (Q980A5 whole entry) above, with D19A counted along it

Turning to `Nc1nc2c(ncn2[C@@H]2O[C@H](COP(=O)(O)OP(=O)(O)O)[C@@H](O)[C@H]2O)c(=O)[nH]1` [GDP], the Kd in experiment [1] amounted to 340 ± 100 nM; in experiment [2] it was 520 ± 120 nM; in experiment [3], 240 ± 100 nM.
